The values that follow are results of earlier work, collected in US20250216408A1, “REAGENT COMBINATION AND METHOD FOR DETECTING TARGET IMMUNOSUPPRESSANT IN WHOLE BLOOD WITHOUT CENTRIFUGATION” (Shenzhen New Industries Biomedical Engineering co., Ltd., priority 2023, published 2025).

The conditions of data set [1]: FK506 in plasma.

For `C=CC[C@@H]1/C=C(\C)C[C@H](C)C[C@H](OC)[C@H]2O[C@@](O)(C(=O)C(=O)N3CCCC[C@H]3C(=O)O[C@H](/C(C)=C/[C@@H]3CC[C@@H](O)[C@H](OC)C3)[C@H](C)[C@@H](O)CC1=O)[C@H](C)C[C@@H]2OC` [FK506, tacrolimus], the “Share of drug in whole blood taken up by / present in / bound to red blood cells” value was 75%-80%. The “Plasma protein binding rate” value in data set [1] is “over 98%”. Take `CO[C@H]1C[C@@H]2CC[C@@H](C)[C@@](O)(O2)C(=O)C(=O)N2CCCC[C@H]2C(=O)O[C@H]([C@H](C)C[C@@H]2CC[C@@H](O)[C@H](OC)C2)CC(=O)[C@H](C)/C=C(\C)[C@@H](O)[C@@H](OC)C(=O)[C@H](C)C[C@H](C)/C=C/C=C/C=C/1C` [sirolimus]: the “Share of drug in whole blood taken up by / present in / bound to red blood cells” value was 95%.
